Tests used:
[1] = Fluid (supercritical or subcritical phases), Constant-volume piezometry
[2] = xn = mol fraction of the nth substance listed; settings: Fluid (supercritical or subcritical phases), Constant-volume piezometry, x2 = 0

O [water]
[1]
Settings	mass density [kg/m3]
270.15 K, 4074.2 kPa	1001.55
271.17 K, 3818.6 kPa	1001.52
272.04 K, 5219 kPa	1002.3
272.13 K, 3596.6 kPa	1001.49
273.1 K, 3402.1 kPa	1001.46
273.15 K, 5009.6 kPa	1002.26
274.12 K, 13437 kPa	1006.52
274.15 K, 3220.1 kPa	1001.42
274.15 K, 4843.5 kPa	1002.23
275.15 K, 4716.5 kPa	1002.19
275.16 K, 3074.5 kPa	1001.39
275.18 K, 13355 kPa	1006.48
276.12 K, 4614.4 kPa	1002.16
276.16 K, 13306 kPa	1006.44
276.17 K, 2960.4 kPa	1001.35
276.18 K, 13305 kPa	1006.44
277.15 K, 2875.8 kPa	1001.32
277.15 K, 4535.3 kPa	1002.12
277.16 K, 13282 kPa	1006.4
278.13 K, 4490.8 kPa	1002.08
278.16 K, 2819.8 kPa	1001.27
278.16 K, 13288 kPa	1006.35
279.1 K, 4468.4 kPa	1002.03
279.16 K, 2790.3 kPa	1001.23
279.17 K, 13328 kPa	1006.3
280.1 K, 4469.1 kPa	1001.99
280.17 K, 13374 kPa	1006.26
281.08 K, 2807.6 kPa	1001.14
281.14 K, 4509 kPa	1001.94
281.17 K, 13456 kPa	1006.21
282.13 K, 13562 kPa	1006.16
283.15 K, 4649.5 kPa	1001.84
283.18 K, 13665 kPa	1006.11
285.14 K, 13994 kPa	1006.01
286.05 K, 5038.7 kPa	1001.69
288.15 K, 14714 kPa	1005.84
289.17 K, 5677.6 kPa	1001.51
292.12 K, 6505.6 kPa	1001.33
296.13 K, 7938.8 kPa	1001.06
300.13 K, 9714.8 kPa	1000.78
305.19 K, 12424 kPa	1000.41
308.16 K, 14234 kPa	1000.19

O [water] + N
[2]
Settings	mass density [kg/m3]
270.15 K, 4074.2 kPa	1001.55
271.17 K, 3818.6 kPa	1001.52
272.04 K, 5219 kPa	1002.3
272.13 K, 3596.6 kPa	1001.49
273.1 K, 3402.1 kPa	1001.46
273.15 K, 5009.6 kPa	1002.26
274.12 K, 13437 kPa	1006.52
274.15 K, 3220.1 kPa	1001.42
274.15 K, 4843.5 kPa	1002.23
275.15 K, 4716.5 kPa	1002.19
275.16 K, 3074.5 kPa	1001.39
275.18 K, 13355 kPa	1006.48
276.12 K, 4614.4 kPa	1002.16
276.16 K, 13306 kPa	1006.44
276.17 K, 2960.4 kPa	1001.35
276.18 K, 13305 kPa	1006.44
277.15 K, 2875.8 kPa	1001.32
277.15 K, 4535.3 kPa	1002.12
277.16 K, 13282 kPa	1006.4
278.13 K, 4490.8 kPa	1002.08
278.16 K, 2819.8 kPa	1001.27
278.16 K, 13288 kPa	1006.35
279.1 K, 4468.4 kPa	1002.03
279.16 K, 2790.3 kPa	1001.23
279.17 K, 13328 kPa	1006.3
280.1 K, 4469.1 kPa	1001.99
280.17 K, 13374 kPa	1006.26
281.08 K, 2807.6 kPa	1001.14
281.14 K, 4509 kPa	1001.94
281.17 K, 13456 kPa	1006.21
282.13 K, 13562 kPa	1006.16
283.15 K, 4649.5 kPa	1001.84
283.18 K, 13665 kPa	1006.11
285.14 K, 13994 kPa	1006.01
286.05 K, 5038.7 kPa	1001.69
288.15 K, 14714 kPa	1005.84
289.17 K, 5677.6 kPa	1001.51
292.12 K, 6505.6 kPa	1001.33
296.13 K, 7938.8 kPa	1001.06
300.13 K, 9714.8 kPa	1000.78
305.19 K, 12424 kPa	1000.41
308.16 K, 14234 kPa	1000.19

— the NIST ThermoML archive (doi:10.1007/s10765-005-8590-7)
